Laboratory results reported in patent US8163795B2, “Chroman derivatives, medicaments and use in therapy” (Marshall Edwards, Inc., priority 2004, dated 2012).
Like-named read-outs stand apart in the source and are kept apart here.

Tests used:
[1] = system: TRAIL-sensitive and -resistant melanoma cells; test: Apoptosis incidence, statements over several melanoma cell lines; assay type: cell-based; details: 4 μM, 24 hr exposure, DHE-treated cells
[2] = system: IGR3 melanoma cells (Trail-resistant); test: Apoptosis incidence in melanoma cells; assay type: cell-based
[3] = DHE and HMC pharmacokinetics, oral, mice; assay type: in vivo, female BALB/c mice; details: for Free plasma concentration: 50 mg/kg p.o.
Experimental: HMC and DHE were prepared as homogenous suspensions in 1% CMC (m:v, water). Both formulations were delivered orally by gavage to female BALB/c mice at a dosage of 50 mg/kg. Three animals were allocated to each timepoint (15 min, 30 min, 1 hr, 4 hr and 24 hr). At each respective timepoint, animals were euthanased by cervical dislocation and blood collected. Free HMC was analysed by mass spectroscopy.

[4] = system: MEL-RM melanoma cells (TRAIL sensitive); test: Apoptosis incidence in melanoma cells; assay type: cell-based
[5] = system: ME4405 melanoma cells (TRAIL sensitive); test: Apoptosis incidence in melanoma cells; assay type: cell-based
[6] = system: CP70 ovarian cancer cell line; test: Proliferation assay (MTT); assay type: cell-based
RPMI-8226 (Leukemic) = test: Proliferation assay (MTT); assay type: cell-based; details: Homo sapiens; Table 2.1; Leukemic RPMI-8226
Experimental: (§1) All cultures were supplemented with 10% FCS (fetal calf serum CSL, Australia), penicillin (100 U/ml), streptomycin ([…]), L-glutamine (2 mM) and sodium bicarbonate (1.2 g/L), and cultured at 37° C. in a humidified atmosphere of 5% CO2. All cell lines were purchased from ATCC (Maryland, USA) except where noted.
(§2) IC50 values were determined for each cell line. Cells were seeded in 96-well plates at an appropriate cell density as determined from growth kinetics analysis and cultured for 5 days in the absence and presence of the test compounds. Cell proliferation was assessed after the addition of 20 μl of 3-4,5 dimethylthiazol-2,5-diphenyl tetrazolium bromide (MTT, 2.5 mg/ml in PBS, Sigma) for 3-4 hrs at 37° C. according to manufacturer's instructions. IC50 values were calculated from semi-log plots of % of control proliferation on the y-axis against log dose on the x-axis.

[7] = system: PC3 prostate cancer cell line; test: Proliferation assay (MTT); assay type: cell-based; details: Table 2.1
Experimental: as §1, §2

[8] = system: MCF-7 breast cancer cell line; test: Proliferation assay (MTT); assay type: cell-based; details: Table 2.1, Breast MCF-7
Experimental: as §1, §2

LNCaP (Prostate) = test: Proliferation assay (MTT); assay type: cell-based; details: Table 2.1
Experimental: as §1, §2

MM96L melanoma cell line = test: Proliferation assay (MTT); assay type: cell-based; details: Homo sapiens, Table 15
Experimental: as §1, §2

HT-29 (Colorectal) = test: Proliferation assay (MTT); assay type: cell-based; details: Table 2.1, Colorectal HT-29
Experimental: as §1, §2

HTB-138 (Glioma) = test: Proliferation assay (MTT); assay type: cell-based; details: Table 2.1; Glioma HTB-138
Experimental: as §1, §2

CCRF-CEM (Leukemic) = test: Proliferation assay (MTT); assay type: cell-based; details: Homo sapiens; Table 2.1; Leukemic CCRF-CEM
Experimental: as §1, §2

A2780 (Ovarian) = test: Proliferation assay (MTT); assay type: cell-based; details: Table 2.1
Experimental: as §1, §2

HCT-15 (Colorectal) = test: Proliferation assay (MTT); assay type: cell-based; details: Table 2.1, Colorectal HCT-15
Experimental: as §1, §2

DU145 (Prostate) = test: Proliferation assay (MTT); assay type: cell-based
Experimental: as §1, §2

[9] = system: SKMe128 melanoma cell line; test: Proliferation assay (MTT); assay type: cell-based; details: Table 15
Experimental: as §1, §2

NCI-H23 (Lung) = test: Proliferation assay (MTT); assay type: cell-based; details: Homo sapiens, Table 2.1
Experimental: as §1, §2

NCI-H460 (Lung) = test: Proliferation assay (MTT); assay type: cell-based; details: Table 2.1, Lung NCI-H460
Experimental: as §1, §2

[10] = system: MDA-MB-468 breast cancer cell line; test: Proliferation assay (MTT); assay type: cell-based
MM200 melanoma cell line [11] = test: Proliferation assay (MTT); assay type: cell-based
[12] = system: SKOV-3 ovarian cancer cell line; test: Proliferation assay (MTT); assay type: cell-based
[13] = system: normal fibroblasts (MRC-5); test: Apoptosis in normal fibroblasts; assay type: cell-based; details: same concentration (8 μM) and exposure times (24 and 48 hr) as melanoma cells
Experimental: Studies were conducted on normal fibroblasts (MRC-5) and TRAIL-sensitive melanoma cells (ME4405 and MEL-RM) using 8 μM of either DHE, or HMC over 24 and 48 hr of exposure (FIG. 9).

[14] = system: Mel-AT melanoma cells (Trail +ve/Caspase 8 −ve); test: Apoptosis incidence in melanoma cells; assay type: cell-based
[15] = system: Neonatal foreskin fibroblasts (NFF); test: Proliferation assay (MTT), normal cell toxicity; assay type: cell-based, Human; details: read-out: IC50
Experimental: (§3) The normal cell line NFF (neonatal foreskin fibroblasts) was a sift from Dr. Peter Parsons (Queensland Institute of Medical Research). RK (rabbit kidney) cells were obtained from Miller Whalley (Macquarie University). Both cell lines were cultured in RPMI supplemented with 10% FCS(CSL, Australia), penicillin (100 U/ml), streptomycin ([…]), L-glutamine (2 mM) and sodium bicarbonate (1.2 g/L), and cultured at 37° C. in a humidified atmosphere of 5% CO2.
as §2

[16] = system: HPAC (CRL-2119) pancreatic cancer cell line; test: Proliferation assay (MTT); assay type: cell-based, human
rabbit kidney cells (RK) = test: Proliferation assay (MTT), normal cell toxicity; assay type: cell-based; details: read-out: IC50
Experimental: as §3, §2

MM200 melanoma cell line [17] = test: HMC combination with cisplatin (synergy); assay type: cell-based; details: Table 8, single agent
Experimental: as §2
3-D model analysis of the cytotoxic interaction between drug A and drug B enables the representation of predicted inhibitory effect of two drugs in combination in 3 dimensions to reveal actual regions of synergy or antagonism. The 3D synergy plots are based on a theory of “Theretical Additivity” (TA) as outlined by Kanzawa et al (Int. J. Cancer 71, 311-319 (1997)). Theoretical Additivity was calculated from the cytotoxicities of drug A and drug B as monotherapies using the following formula which assumes the drugs are mutually exclusive inhibitors: […]
The TA is calculated for each combination of drug concentrations and subtracted from the observed experimental effect for each combination to give a measurement of synergisitic action.
HMC synergy with cisplatin was assessed either in combination over 5 days exposure or in sequence (HMC→cisplatin) against the MM200 melanoma cell line. It was difficult to assess for synergisitic toxicity using a change in IC50 as a measure of synergy due to HMC toxicity as monotherapy (Table 8). […] Evidence of synergy using the HMC-cisplatin combination was further assessed using the HMC→cisplatin sequence (24 hr exposure to each compound in sequence) against the melanoma cell line MM200. Using change in IC50 to assess for synergy it was noted that HMC at concentrations of 2 μM markedly chemosensitised the MM200 cells to cisplatin by >1000 fold (Table 8). HMC induced chemosensitisation of MM200 cells to cisplatin was confirmed using 3D analysis of the data (FIG. 11B).

A2058 melanoma cell line = test: Proliferation assay (MTT); assay type: cell-based; details: Table 2.1; Melanoma A2058
[18] = Table 1, Neonatal Foreskin Fibroblasts (Human, NFF)

Q: What does the source list for `Oc1ccc(C2=Cc3ccc(O)cc3OC2)cc1` [DHE, dehydroequol, reference compound]?
A: incidence of apoptosis [1]: 0-1%; Percent Apoptosis ([2]; 24 hr exposure, 1 uM): 0%; Percent Apoptosis ([2]; 24 hr exposure, 2 uM): 0%; Percent Apoptosis ([2]; 24 hr exposure, 4 uM): 1%; Percent Apoptosis ([2]; 24 hr exposure, 8 uM): 3%; Percent Apoptosis ([2]; 24 hr exposure, 20 uM): 4%; Percent Apoptosis ([2]; 48 hr exposure, 1 uM): 1%; Percent Apoptosis ([2]; 48 hr exposure, 2 uM): 1%; Percent Apoptosis ([2]; 48 hr exposure, 4 uM): 2%; Percent Apoptosis ([2]; 48 hr exposure, 8 uM): 8%; Percent Apoptosis ([2]; 48 hr exposure, 20 uM): 8%; Free plasma concentration ([3]; Time 0.25): 3300 ± 130 nM; Free plasma concentration ([3]; Time 0.5): 2900 ± 50 nM; Free plasma concentration ([3]; Time 1): 1500 ± 110 nM; Free plasma concentration ([3]; Time 4): 1300 ± 70 nM; Free plasma concentration ([3]; Time 24): 150 ± 40 nM; maximum plasma concentration of the free form ([3]; oral 50 mg/kg): 3.3 µM; ratio of free:total ([3]; oral 50 mg/kg): 0.64; time of maximum free concentration ([3]; oral 50 mg/kg): 15 min; Percent Apoptosis ([4]; 24 hr exposure, 1 uM): 0%; Percent Apoptosis ([4]; 24 hr exposure, 2 uM): 0%; Percent Apoptosis ([4]; 24 hr exposure, 4 uM): 0%; Percent Apoptosis ([4]; 24 hr exposure, 8 uM): 2%; Percent Apoptosis ([4]; 24 hr exposure, 20 uM): 5%; Percent Apoptosis ([4]; 48 hr exposure, 1 uM): 1%; Percent Apoptosis ([4]; 48 hr exposure, 2 uM): 1.5%; Percent Apoptosis ([4]; 48 hr exposure, 4 uM): 3%; Percent Apoptosis ([4]; 48 hr exposure, 8 uM): 10%; Percent Apoptosis ([4]; 48 hr exposure, 20 uM): 12%; Percent Apoptosis ([5]; 24 hr exposure, 1 uM): 0%; Percent Apoptosis ([5]; 24 hr exposure, 2 uM): 2%; Percent Apoptosis ([5]; 24 hr exposure, 4 uM): 2%; Percent Apoptosis ([5]; 24 hr exposure, 8 uM): 6%; Percent Apoptosis ([5]; 24 hr exposure, 20 uM): 11%; Percent Apoptosis ([5]; 48 hr exposure, 1 uM): 1%; Percent Apoptosis ([5]; 48 hr exposure, 2 uM): 3%; Percent Apoptosis ([5]; 48 hr exposure, 4 uM): 14%; Percent Apoptosis ([5]; 48 hr exposure, 8 uM): 40%; Percent Apoptosis ([5]; 48 hr exposure, 20 uM): 35%; IC50 [6]: 1.69 ± 0.62 µM; IC50 (RPMI-8226 (Leukemic)): 3.72 ± 0.08 µM; IC50 [7]: 9.09 ± 8.12 µM; IC50 ([8]; Homo sapiens, MCF7): 21.5 ± 13.2 µM; IC50 (LNCaP (Prostate); Homo sapiens): 4.8 ± 3.8 µM; IC50 (MM96L melanoma cell line): 4.76 µM; IC50 (HT-29 (Colorectal); Homo sapiens): 50.5 ± 21.9 µM; IC50 (HTB-138 (Glioma)): 7.35 ± 0.89 µM; IC50 (CCRF-CEM (Leukemic)): 1.7 ± 0.68 µM; IC50 (A2780 (Ovarian); Homo sapiens): 1.7 ± 0.61 µM; IC50 (HCT-15 (Colorectal); Homo sapiens): 24.4 ± 12.6 µM; IC50 (DU145 (Prostate); Homo sapiens, DU-145, Table 2.1): 5.95 ± 1.5 µM; IC50 [9]: 4.4 µM; IC50 (NCI-H23 (Lung)): 8.75 ± 7.2 µM; IC50 (NCI-H460 (Lung); Homo sapiens): 10.6 ± 3.8 µM; IC50 ([10]; Homo sapiens, MDA-MB-468): 7.9 ± 3.5 µM; IC50 (MM200 melanoma cell line [11]; Table 2.1, Melanoma MM200): 2.9 µM; IC50 (MM200 melanoma cell line [11]; Table 15, melanoma MM200, monotherapy): 4.77 ± 4 µM; IC50 ([12]; Homo sapiens, SK-OV-3): 21.8 ± 4.65 µM; induction of apoptosis in normal fibroblasts [13]: do not induce apoptosis; Percent Apoptosis ([14]; 24 hr exposure, 1 uM): 0%; Percent Apoptosis ([14]; 24 hr exposure, 2 uM): 3%; Percent Apoptosis ([14]; 24 hr exposure, 4 uM): 4%; Percent Apoptosis ([14]; 24 hr exposure, 8 uM): 8%; Percent Apoptosis ([14]; 24 hr exposure, 20 uM): 10%; Percent Apoptosis ([14]; 48 hr exposure, 1 uM): 1.5%; Percent Apoptosis ([14]; 48 hr exposure, 2 uM): 5%; Percent Apoptosis ([14]; 48 hr exposure, 4 uM): 15%; Percent Apoptosis ([14]; 48 hr exposure, 8 uM): 43%; Percent Apoptosis ([14]; 48 hr exposure, 20 uM): 40%; IC50 ([15]; Homo sapiens, Fibroblast, NFF): > 150 µM; IC50 [15, 18]: > 150 µM; IC50 ([16]; Homo sapiens, HPAC): 56.6 ± 16.8 µM; IC50 (rabbit kidney cells (RK); Oryctolagus cuniculus, rabbit kidney cells): > 150 µM; IC50 (rabbit kidney cells (RK); Table 1, Rabbit Kidney): > 150 µM

Q: With `N.N.[Cl][Pt][Cl]` [Cisplatin, cisplatin, reference compound] as the compound, how does the IC50 ([6]; Table 2.1, Ovarian CP70, read-out: IC50) read?
A: 10.3 µM

Q: What about the IC50 [7] of the same compound?
A: 2.11 µM

Q: What about the IC50 [8] of the same compound?
A: 3.69 µM

Q: And the IC50 (LNCaP (Prostate))?
A: > 10 µM

Q: And the IC50 (HT-29 (Colorectal))?
A: 22.7 ± 35 µM

Q: And the IC50 (HTB-138 (Glioma))?
A: 42.3 µM

Q: And the IC50 (A2780 (Ovarian))?
A: 2.1 µM

Q: And the IC50 (HCT-15 (Colorectal))?
A: 130 ± 39 µM

Q: And the IC50 (DU145 (Prostate); Table 2.1)?
A: 2.07 µM

Q: What about the IC50 (NCI-H460 (Lung)) of the same compound?
A: 22.3 µM

Q: And the IC50 ([10]; Table 2.1, Breast MDA-MB-468, read-out: IC50)?
A: 0.58 µM

Q: What about the IC50 (MM200 melanoma cell line [11]; Table 2.1, Melanoma MM200, read-out: IC50) of the same compound?
A: 8.3 ± 0.7 µM

Q: And the IC50 ([12]; Table 2.1, Ovarian SKOV-3, read-out: IC50)?
A: 5.4 µM

Q: And the IC50 (MM200 melanoma cell line [17]; 24 hr exposure, read-out: IC50, 24 hr (monotherapy))?
A: 6.32 µM

Q: What about the IC50 (MM200 melanoma cell line [17]; 5 days exposure, read-out: IC50, Combined (monotherapy)) of the same compound?
A: 8.82 µM

Q: And the IC50 [15, 18]?
A: 9.85 ± 5 µM

Q: And the IC50 ([16]; Table 2.1, Pancreatic CRL-2119, read-out: IC50)?
A: 9.36 µM

Q: What about the IC50 (A2058 melanoma cell line) of the same compound?
A: 5.73 ± 2.3 µM
